According to patent publication US8747740B2, “Process and apparatus for generating haloamine biocide” (Hercules Incorporated, priority 2007, dated 2014):

Test: Stability of chloramine in aqueous solution
Type: physicochemical
Conditions: pH of about 10 to about 11; partially decomposes at higher concentrations or lower pH

NCl [chloramine, Monochloramine]
concentration up to which chloramine is stable: up to 1,000 ppm
